Assay results reported in ChEMBL document CHEMBL1140654 (Bioorg Med Chem Lett, 2007).
Each block holds one compound with its values, some of them ahead of it.

What was measured:
[1] = molecular target: MAP kinase-activated protein kinase 3 (Homo sapiens, UniProt Q16644); experiment: Inhibition of MK3; type: single protein
[2] = molecular target: Ribosomal protein S6 kinase alpha-5 (Homo sapiens, UniProt O75582); experiment: Inhibition of MSK1
[3] = molecular target: Mitogen-activated protein kinase 9 (Homo sapiens, UniProt P45984); experiment: Inhibition of JNK2
[4] = molecular target: T1, Inhibitor of nuclear factor kappa-B kinase subunit beta (Homo sapiens, UniProt O14920); experiment: Inhibition of IKK2
T1 sequence (O14920 whole entry): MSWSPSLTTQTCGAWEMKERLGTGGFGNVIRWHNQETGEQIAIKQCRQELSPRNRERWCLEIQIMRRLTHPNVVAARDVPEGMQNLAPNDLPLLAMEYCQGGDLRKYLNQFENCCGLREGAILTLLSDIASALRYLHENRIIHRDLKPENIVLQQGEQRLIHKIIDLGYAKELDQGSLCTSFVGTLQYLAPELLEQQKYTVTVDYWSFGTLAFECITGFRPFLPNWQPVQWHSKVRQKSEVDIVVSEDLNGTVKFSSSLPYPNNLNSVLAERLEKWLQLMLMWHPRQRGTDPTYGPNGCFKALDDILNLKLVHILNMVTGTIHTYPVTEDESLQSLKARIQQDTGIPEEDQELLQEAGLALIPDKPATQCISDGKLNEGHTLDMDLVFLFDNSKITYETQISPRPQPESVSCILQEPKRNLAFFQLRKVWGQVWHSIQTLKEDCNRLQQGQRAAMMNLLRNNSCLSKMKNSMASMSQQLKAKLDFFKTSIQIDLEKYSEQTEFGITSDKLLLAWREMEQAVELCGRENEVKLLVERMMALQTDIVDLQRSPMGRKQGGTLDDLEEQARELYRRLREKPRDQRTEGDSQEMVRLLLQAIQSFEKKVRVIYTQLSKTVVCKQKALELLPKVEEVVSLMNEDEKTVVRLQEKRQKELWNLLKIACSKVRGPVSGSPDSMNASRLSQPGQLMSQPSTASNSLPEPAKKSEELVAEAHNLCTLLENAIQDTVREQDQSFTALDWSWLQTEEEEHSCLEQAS

[5] = molecular target: Mitogen-activated protein kinase 14 (Homo sapiens, UniProt Q16539); experiment: Inhibition of p38alpha
[6] = molecular target: Mitogen-activated protein kinase 1 (Homo sapiens, UniProt P28482); experiment: Inhibition of ERK2
[7] = molecular target: T2, MAP kinase-activated protein kinase 5 (Homo sapiens, UniProt Q8IW41); experiment: Inhibition of PRAK
T2 sequence (Q8IW41 whole entry): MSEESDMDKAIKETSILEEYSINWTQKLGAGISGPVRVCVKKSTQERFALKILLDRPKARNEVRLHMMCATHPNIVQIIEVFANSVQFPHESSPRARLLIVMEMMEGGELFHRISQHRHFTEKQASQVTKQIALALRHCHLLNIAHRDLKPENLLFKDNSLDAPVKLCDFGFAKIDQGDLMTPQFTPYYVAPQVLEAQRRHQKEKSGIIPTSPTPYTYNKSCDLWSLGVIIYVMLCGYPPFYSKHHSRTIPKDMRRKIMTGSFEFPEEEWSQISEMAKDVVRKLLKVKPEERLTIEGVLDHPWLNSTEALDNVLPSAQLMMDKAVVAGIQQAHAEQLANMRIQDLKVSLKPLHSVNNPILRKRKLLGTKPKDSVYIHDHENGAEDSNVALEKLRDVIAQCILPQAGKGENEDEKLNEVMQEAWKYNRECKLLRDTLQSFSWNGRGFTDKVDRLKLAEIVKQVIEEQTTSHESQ

U-937 = experiment: Inhibition of TNFalpha production in U937 cells; details: Homo sapiens
Rattus norvegicus = experiment: Inhibition of TNFalpha production in rat at 40 mg/kg, ip administered 1 hr prior to LPS challenge; type: functional; design: scale not given: the % may be the effect or the level left; details: route intraperitoneal
[8] = molecular target: MAP kinase-activated protein kinase 2 (Homo sapiens, UniProt P49137)
[9] = molecular target: MAP kinase-interacting serine/threonine-protein kinase 1 (Homo sapiens, UniProt Q9BUB5); experiment: Inhibition of MNK1
Sequence of MAP kinase-interacting serine/threonine-protein kinase 1 (Q9BUB5 whole entry): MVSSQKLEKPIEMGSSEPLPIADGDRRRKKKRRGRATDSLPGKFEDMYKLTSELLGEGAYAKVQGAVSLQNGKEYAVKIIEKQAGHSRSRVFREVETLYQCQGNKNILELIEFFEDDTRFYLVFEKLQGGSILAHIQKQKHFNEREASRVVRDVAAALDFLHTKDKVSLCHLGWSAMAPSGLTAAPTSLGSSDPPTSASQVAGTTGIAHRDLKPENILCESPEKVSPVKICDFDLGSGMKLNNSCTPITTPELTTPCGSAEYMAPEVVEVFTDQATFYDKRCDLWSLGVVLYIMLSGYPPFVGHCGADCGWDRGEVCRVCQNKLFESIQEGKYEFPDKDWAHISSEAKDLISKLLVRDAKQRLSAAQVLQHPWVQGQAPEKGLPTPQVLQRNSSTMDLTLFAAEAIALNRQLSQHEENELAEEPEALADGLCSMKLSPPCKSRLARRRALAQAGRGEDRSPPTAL

Sequence of MAP kinase-activated protein kinase 3 (Q16644 whole entry): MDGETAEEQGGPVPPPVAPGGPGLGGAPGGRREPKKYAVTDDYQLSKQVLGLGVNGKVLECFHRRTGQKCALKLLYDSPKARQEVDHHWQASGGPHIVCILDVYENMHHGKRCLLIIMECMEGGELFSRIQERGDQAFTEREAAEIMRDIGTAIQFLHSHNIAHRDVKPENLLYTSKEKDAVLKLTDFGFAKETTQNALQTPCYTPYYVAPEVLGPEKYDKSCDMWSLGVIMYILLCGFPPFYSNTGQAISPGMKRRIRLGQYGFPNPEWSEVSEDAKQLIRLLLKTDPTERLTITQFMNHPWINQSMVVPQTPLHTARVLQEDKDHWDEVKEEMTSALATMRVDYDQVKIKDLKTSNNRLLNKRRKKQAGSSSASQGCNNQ
Sequence of Ribosomal protein S6 kinase alpha-5 (O75582 whole entry): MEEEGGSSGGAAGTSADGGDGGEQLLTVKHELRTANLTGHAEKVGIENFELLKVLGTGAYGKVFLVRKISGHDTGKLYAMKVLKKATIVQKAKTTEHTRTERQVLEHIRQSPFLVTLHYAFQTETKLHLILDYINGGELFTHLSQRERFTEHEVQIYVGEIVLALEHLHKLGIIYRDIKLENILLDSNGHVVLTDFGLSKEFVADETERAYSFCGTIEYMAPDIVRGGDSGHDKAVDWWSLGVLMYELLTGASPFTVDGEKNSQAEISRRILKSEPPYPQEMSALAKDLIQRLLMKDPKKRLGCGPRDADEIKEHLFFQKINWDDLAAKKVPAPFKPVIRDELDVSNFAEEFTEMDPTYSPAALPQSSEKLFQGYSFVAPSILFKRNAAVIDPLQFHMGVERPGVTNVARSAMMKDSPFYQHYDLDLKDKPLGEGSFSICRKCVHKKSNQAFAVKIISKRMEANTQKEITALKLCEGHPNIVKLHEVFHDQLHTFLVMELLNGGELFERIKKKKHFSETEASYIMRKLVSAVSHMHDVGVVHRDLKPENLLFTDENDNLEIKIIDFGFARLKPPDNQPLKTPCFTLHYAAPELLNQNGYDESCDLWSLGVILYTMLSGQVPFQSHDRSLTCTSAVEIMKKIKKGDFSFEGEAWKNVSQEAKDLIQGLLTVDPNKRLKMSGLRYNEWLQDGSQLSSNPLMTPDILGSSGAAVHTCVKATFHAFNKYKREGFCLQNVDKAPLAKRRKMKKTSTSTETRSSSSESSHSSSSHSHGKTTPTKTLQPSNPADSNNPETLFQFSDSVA
Sequence of Mitogen-activated protein kinase 14 (Q16539 whole entry): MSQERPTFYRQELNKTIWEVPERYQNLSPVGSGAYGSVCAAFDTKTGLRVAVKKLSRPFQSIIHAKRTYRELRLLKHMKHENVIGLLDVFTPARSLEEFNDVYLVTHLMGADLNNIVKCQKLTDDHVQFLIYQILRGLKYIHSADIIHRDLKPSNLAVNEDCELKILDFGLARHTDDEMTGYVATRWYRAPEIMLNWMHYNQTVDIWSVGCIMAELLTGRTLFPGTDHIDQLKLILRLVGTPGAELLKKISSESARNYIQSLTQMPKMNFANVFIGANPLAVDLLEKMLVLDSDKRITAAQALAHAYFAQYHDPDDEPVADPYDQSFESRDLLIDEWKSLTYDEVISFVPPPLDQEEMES
Sequence of MAP kinase-activated protein kinase 2 (P49137 whole entry): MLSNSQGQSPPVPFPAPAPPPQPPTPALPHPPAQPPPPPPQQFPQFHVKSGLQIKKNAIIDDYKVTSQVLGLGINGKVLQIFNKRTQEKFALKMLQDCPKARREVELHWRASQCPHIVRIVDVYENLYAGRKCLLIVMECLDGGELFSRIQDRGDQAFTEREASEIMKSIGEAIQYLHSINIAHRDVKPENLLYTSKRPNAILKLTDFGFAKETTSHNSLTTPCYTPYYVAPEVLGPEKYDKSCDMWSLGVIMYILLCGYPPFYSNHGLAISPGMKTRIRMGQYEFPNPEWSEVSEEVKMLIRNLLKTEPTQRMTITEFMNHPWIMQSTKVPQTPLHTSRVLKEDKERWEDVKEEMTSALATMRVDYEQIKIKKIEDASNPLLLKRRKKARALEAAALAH
Sequence of Mitogen-activated protein kinase 9 (P45984 whole entry): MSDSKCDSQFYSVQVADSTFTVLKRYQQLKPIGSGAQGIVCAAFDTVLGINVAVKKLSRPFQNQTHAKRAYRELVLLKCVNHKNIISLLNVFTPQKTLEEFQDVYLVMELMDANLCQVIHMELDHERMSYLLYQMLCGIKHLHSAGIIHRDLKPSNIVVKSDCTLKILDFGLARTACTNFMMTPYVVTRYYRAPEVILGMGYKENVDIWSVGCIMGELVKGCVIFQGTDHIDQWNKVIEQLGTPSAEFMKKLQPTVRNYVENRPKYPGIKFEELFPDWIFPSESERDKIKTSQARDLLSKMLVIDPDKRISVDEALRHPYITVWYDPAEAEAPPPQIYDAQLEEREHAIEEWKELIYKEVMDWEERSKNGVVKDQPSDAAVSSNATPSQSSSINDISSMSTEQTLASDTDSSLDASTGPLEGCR
Sequence of Mitogen-activated protein kinase 1 (P28482 whole entry): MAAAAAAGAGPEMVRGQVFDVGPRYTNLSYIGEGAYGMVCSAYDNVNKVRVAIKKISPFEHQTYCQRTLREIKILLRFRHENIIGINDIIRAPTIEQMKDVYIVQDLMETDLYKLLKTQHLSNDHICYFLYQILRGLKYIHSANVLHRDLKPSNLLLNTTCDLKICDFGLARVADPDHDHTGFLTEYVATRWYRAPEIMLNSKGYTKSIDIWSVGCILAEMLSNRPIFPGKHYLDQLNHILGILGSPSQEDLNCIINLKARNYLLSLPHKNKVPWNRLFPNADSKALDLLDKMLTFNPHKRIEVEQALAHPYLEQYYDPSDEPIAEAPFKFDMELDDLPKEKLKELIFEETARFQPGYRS

Compound: COc1ccc2[nH]c3c(c2c1)CCNC3C(=O)O (centres undefined)
IC50 [1]: > 200 µM
IC50 [2]: > 200 µM
IC50 [3]: > 200 µM
IC50 [4]: > 200 µM
IC50 [5]: > 100 µM
IC50 [6]: > 100 µM
IC50 [7]: 19 µM

Compound: CCCOC(=O)C1c2[nH]c3ccc(OC)cc3c2C2CCN1C2 (centres undefined)
IC50 (U-937): 0.83 µM
Activity (Rattus norvegicus): 84%

Compound: COc1ccc2[nH]c3c(c2c1)C1CCN(C1)C3C(=O)OC(C)c1ccccc1 (centres undefined)
IC50 (U-937): 10.3 µM

IC50 [8]: 170 µM
Compound: CC(=O)Oc1ccc2[nH]c3c(c2c1)CCNC3C(=O)O (centres undefined)

IC50 [8]: 130 µM
Compound: COc1ccc2[nH]c3c(c2c1)CCNC3c1nnn[nH]1 (centres undefined)

Compound: COc1ccc2[nH]c3c(c2c1)C1CCCN(C1)C3C(=O)O (centres undefined)
IC50 [1]: 160 µM

Compound: COc1ccc2[nH]c3c(c2c1)C1CCN(C1)C3C(=O)OCc1ccccc1 (centres undefined)
IC50 (U-937): 1.7 µM

IC50 (U-937): 14.4 µM
Compound: C=CCOC(=O)C1c2[nH]c3ccc(OC)cc3c2C2CCN1C2 (centres undefined)

IC50 (U-937): 5.6 µM
Compound: CCOC(=O)C1c2[nH]c3ccc(OC)cc3c2C2CCN1C2 (centres undefined)

IC50 [1]: 90 µM
IC50 [2]: > 200 µM
IC50 [3]: > 200 µM
IC50 [4]: > 200 µM
IC50 [5]: > 100 µM
IC50 [7]: 24 µM
IC50 [9]: > 200 µM
IC50 (U-937): 80.8 µM
Compound: COc1ccc2[nH]c3c(c2c1)C1CCN(C1)C3C(=O)O (centres undefined)
